For data set [1], the system named is mice. Description: Antiarrhythmic activity, method of Ferrini et al, endovenous administration to mice. The class given is in vivo. As to conditions: for ED50: Mus musculus, iv, read-out: Antiarrythmic activity ED50.
Source text: Antiarrhythmic activity (Parameter 1) has been determined according to the method of Ferrini et al (Arzn.-Forsch., 29 (II), 9a, 1947-77, 1979).
Another data set relates to mean arterial pressure. Put plainly: Decrease in mean arterial pressure (hypotension), anesthetized rats, endovenous. The class given is in vivo. As to conditions: for ED50: Rattus norvegicus, iv.
Another data set concerns heart rate. Description: Effect on heart rate (bradycardia), anesthetized rats, endovenous. The class given is in vivo. As to conditions: for ED50: Rattus norvegicus, iv.
In another data set the test system is cerebral flow. Description: Cerebral flow change by electromagnetic flowmetry, anesthetized dogs. As to conditions: endovenous, 5 mg/kg, variation over mean values before testing. Type of data set: in vivo.
The subject of another data set is carotid flow. Put plainly: Carotid flow change by electromagnetic flowmetry, anesthetized dogs. Type of data set: in vivo. As to conditions: endovenous, 5 mg/kg, variation over mean values before testing.
A further data set relates to arterial pressure. Description: Mean arterial pressure determined simultaneously with cerebral and carotid flows, anesthetized dogs. The class given is in vivo. As to conditions: endovenous, 5 mg/kg, variation over mean values before testing.
For data set [2], the system named is cerebral vascular resistance. Description: Cerebral vascular resistance determined simultaneously with cerebral and carotid flows, anesthetized dogs. The class given is in vivo. As to conditions: endovenous, 5 mg/kg, variation over mean values before testing.
Procedure: The measurements of cerebral and carotid flow changes (parameters 4 and 5) have been made using the most sophisticated methods. Both parameters have been measured by electromagnetic flowmetry (Narcomatic-Electromagnetic flowmeter) on 12 anesthetized dogs. The hemodynamic parameter average of animals before testing were pO2 =95.40±3.98; pCO2 =34.31.congruent.2.38 and pH-7.297±0.315 by endovenously administering the compounds of a 5 mg/kg dosis.
Simultaneously with the measuring of cerebral and carotid flows, the mean arterial pressure and cerebral vascular resistance (parameters 6,7) in each animal was determined. These parameters were measured according to the conventional method in Cardiovascular Pharmacology and the values were tabulated as the variation rate (Increase or Decrease) over mean values before testing.
The test system of data set [3] is mice. As to conditions: endovenous.
The nature of the next data set: in vivo. As to conditions: mouse, iv.

Procedure for cerebral flow: Both parameters have been measured by electromagnetic flowmetry (Narcomatic-Electromagnetic flowmeter) on 12 anesthetized dogs. The hemodynamic parameter average of animals before testing were pO2 =95.40±3.98; pCO2 =34.31.congruent.2.38 and pH-7.297±0.315 by endovenously administering the compounds of a 5 mg/kg dosis.
Source text for heart rate: The decrease in arterial pressure (Parameter 2) and the effects on heart rate (Parameter 3) have been evaluated according to the usual conventional methods used in Cardiovascular Pharmacology.

Consider `C=CCN1CCN(C(c2ccccc2)c2ccccc2)CC1` [Aligeron 2HCI, reference compound], for which the “Antiarrythmic activity ED50” value in the data set on mice [1] turned out to be 4.4 mg/kg. The “Mean arterial pressure, Hypotension ED50” value in the data set on mean arterial pressure was determined as 1.3 mg/kg. Moreover, the “Heart rate, Bradycardia ED50” value with heart rate was found to be 4.8 mg/kg. Besides, the “Cerebral flow Increase” value in the data set with cerebral flow is reported as 64.0%. Moreover, the “Carotid flow Decrease” value in the data set on carotid flow worked out at 21.3%. Also, in the data set on arterial pressure, the “Arterial pressure Decrease” value amounted to 36.0%. In addition, the “Cerebral vascular resistance Decrease” value in data set [2] came to 61.0%. Besides, the “Acute toxicity LD50” value with mice [3] was 38.5 ± 1.06 mg/kg.

In the case of `C(=C\c1ccccc1)/CN1CCN(C(c2ccccc2)c2ccccc2)CC1` [Cinnarizine 2HCI, reference compound], the “Cerebral flow Increase” value in the data set with cerebral flow was 76.7%. For the same molecule, the “Carotid flow Decrease” value with carotid flow worked out at 62.8%. The “Arterial pressure Decrease” value in the data set on arterial pressure was found to be 43.0%. Besides, in data set [2], the “Cerebral vascular resistance Decrease” value is 68.0%.

Turning to `Cl.Cl.c1ccc(C(c2ccccc2)N2CCN(CC3CC3)CC2)cc1` [Compound 1, 1-Benzhydryl-4-cyclopropylmethyl-piperazine dihydrochloride], the ED50 (commonly the dose at which the effect has come halfway, by size or by number of responders) in the data set on mice [1] turned out to be 4.2 mg/kg; with mean arterial pressure, 2.7 mg/kg; in the data set with heart rate it was 3.4 mg/kg. In addition, the “Cerebral flow Increase” value in the data set on cerebral flow is listed as 55.0%. Moreover, the “Carotid flow Decrease” value in the data set on carotid flow was found to be 68.0%. Moreover, in the data set on arterial pressure, the “Arterial pressure Decrease” value was found to be 30.0%. Moreover, in [2], the “Cerebral vascular resistance Decrease” value amounted to 55.0%. The LD50 (in general, the dose expected to kill half of the subjects tested) in “in vivo” stood at 25.6 ± 4.39 mg/kg.

As for `C=C(CN1CCCCC1)CN1CCN(C(c2ccccc2)c2ccccc2)CC1` [Compound 6, 1-Benzhydryl-4-(2-(1-piperidinylmethyl)-2-propenyl)piperazine], the 50% effective dose (ED50) with mice [1] stood at 4.3 mg/kg; in the data set on mean arterial pressure it was 1.5 mg/kg; with heart rate, 1.7 mg/kg. Also, the “Cerebral flow Increase” value with cerebral flow is 70.0%. In addition, the “Carotid flow Decrease” value with carotid flow worked out at 22.0%. The “Arterial pressure Decrease” value in the data set on arterial pressure worked out at 58.0%. Besides, the “Cerebral vascular resistance Decrease” value in [2] was determined as 75.3%. In the data set “in vivo”, this molecule registered a median lethal dose (LD50) of 8.6 ± 0.54 mg/kg.

For `CCOC(=O)C=CCN1CCN(C(c2ccccc2)c2ccccc2)CC1` [Compound 7], the median effective dose (ED50) in the data set on mice [1] amounted to 23 mg/kg; with mean arterial pressure, 2.1 mg/kg; in the data set with heart rate, 3.8 mg/kg. Further, the “Cerebral flow Increase” value with cerebral flow worked out at 32.0%. Further, the “Carotid flow Decrease” value in the data set with carotid flow stood at 13.0%. Moreover, the “Arterial pressure Decrease” value with arterial pressure amounted to 27.3%. Further, the “Cerebral vascular resistance Decrease” value in [2] stood at 44.7%. In addition, the LD50 in the data set “in vivo” turned out to be 100 ± 6.27 mg/kg.

As to `O=C(CCCN1CCN(C(c2ccccc2)c2ccccc2)CC1)c1ccccc1` [Compound 11], the results for the median effective dose (ED50) with mice [1], with mean arterial pressure and in the data set with heart rate were 6.9 mg/kg, 0.43 mg/kg and 2.1 mg/kg, respectively. Moreover, the “Cerebral flow Increase” value in the data set on cerebral flow worked out at 81.0%. The “Carotid flow Decrease” value with carotid flow was 40.9%. The “Arterial pressure Decrease” value with arterial pressure was 50.0%. Besides, the “Cerebral vascular resistance Decrease” value in data set [2] worked out at 74.0%. In the data set “in vivo”, this molecule returned a 50% lethal dose (LD50) of 21 ± 1.72 mg/kg.

On to `c1ccc(C(c2ccccc2)N2CCN(CCCC3(c4ccccc4)OCCO3)CC2)cc1` [Compound 13], for which the figures for the ED50 with mice [1], in the data set with mean arterial pressure and in the data set with heart rate were 4 mg/kg, 1.5 mg/kg and 2.6 mg/kg, respectively. Besides, in the data set on cerebral flow, the “Cerebral flow Increase” value came out at 140.1%. Moreover, in the data set with carotid flow, the “Carotid flow Decrease” value stood at 25.7%. In the data set on arterial pressure, the “Arterial pressure Decrease” value is 35.0%. Moreover, in data set [2], the “Cerebral vascular resistance Decrease” value turned out to be 73.1%. This molecule also registered a 50% lethal dose (LD50) in the data set “in vivo” of 42.5 ± 3.05 mg/kg.

Regarding `O=C1NCC(CN2CCN(C(c3ccccc3)c3ccccc3)CC2)O1` (stereo not drawn) [Compound 15], the results for the median effective dose (ED50) in the data set with mice [1], with mean arterial pressure and in the data set with heart rate were 16.5 mg/kg, 1.2 mg/kg and 3 mg/kg, respectively. The “Cerebral flow Increase” value with cerebral flow amounted to 38.5%. For the same molecule, the “Carotid flow Decrease” value in the data set with carotid flow was 60.0%. For the same molecule, in the data set with arterial pressure, the “Arterial pressure Decrease” value amounted to 45.5%. For the same molecule, in data set [2], the “Cerebral vascular resistance Decrease” value amounted to 60.3%. The molecule also gave an LD50 in “in vivo” of 40 ± 4.19 mg/kg.

The values above are taken from patent publication US4883797A, “Derivatives of piperazine, method for making the same” (Ferrer Internacional, S.A., priority 1982, dated 1989).
